Consider 33 compounds from a melting point compilation (Tetko et al.; mined from patent text by program, amines drawn as free bases though some values may be those of a salt).

The melting point is the temperature of the solid-liquid transition.

In turn, `CN(C)CC1CCc2c(c3cc(C(N)=O)ccc3n2C)C1=O` (stereo not drawn) came in with a melting point of 171 to 173 °C.
Then `COc1ccnc(C(=O)N[C@H]2COC(=O)[C@H](CC3CCCCC3)[C@@H](OC(=O)C(C)C)[C@H](C)OC2=O)c1OC(C)=O`, with 164 to 170 °C.
In turn, `CC(C)(C)C1CCc2c(c3ccccc3n2CC[N+]2([O-])CCCC2)C1` (stereo not drawn) returned a melting point of 163 to 165 °C.
For the compound `O=C1Nc2ccc(C(F)(F)F)cc2C1c1ncnc2c1cnn2C1CCCC1` (stereo not drawn), the melting point was greater than 300 °C.
For `COc1ccc(CNC(=O)n2cc(F)c(=O)[nH]c2=O)c(OC)c1OC`, the melting point was determined as 159 °C.
Then `O=[N+]([O-])c1ccc(-c2cc3c(O)ncnc3o2)cc1`, with greater than 350 °C.
Then `CSc1nccc(-c2cc(C)ccc2N)n1`, with 120 to 123 °C.
In turn, `CC1=NC(NC(=O)Nc2cccc(C)c2)C(=O)N(CC(=O)C2CCCCCCC2)c2c(C)cccc21` (stereo not drawn) displayed a melting point of 163 to 164 °C.
Then `CC(=O)Oc1ccc2c(c1Cl)Sc1ccccc1N2`, with 173 °C.
Then `Cc1ccc2oc(S(=O)(=O)c3ccc(=O)[nH]n3)c(C)c2c1`, with 246 to 247 °C; and `O=C(NCc1ccccc1)C1(CCCc2ccccc2)c2ccccc2-c2ccccc21`, with 94 °C; and `CCCCC(CC)COc1cc2c3c(cccc3c1Br)C(=O)c1ccccc1-2` (stereo not drawn), with 85 to 88 °C.
Then `CN(C)c1ccc(NC(=O)N(CCC2=CCCCC2)C[C@H]2CCC[C@H](CN(CCC3=CCCCC3)C(=O)Nc3ccc(N(C)C)cc3)C2)cc1` (relative stereo), with 80 to 83 °C; and `CCc1cc2c(-c3ccccc3Cl)nc(=O)n(C)c2s1`, with 99 °C; and `CN1C(=O)CC[C@]2(C)c3ccc(SC(c4ccccc4)c4ccccc4)cc3CC[C@@H]12`, with 102 to 104 °C.
For the compound `CCC(CC)N1C(=O)CCc2c(C)nc(Nc3ccc(C(C)C)cc3Br)nc21`, the melting point was 124 to 126 °C.
For the compound `Clc1nnc(Cl)c2cc3ccccc3cc12`, the melting point was 224 to 228 °C.
On to `C[C@@H](N[C@@H](Cc1c[nH]c2ccccc12)C(=O)O)[C@H](NC(=O)[C@@H](N)CC(N)=O)C(=O)O`, for which the melting point is 65 to 70 °C.
Compound `COc1cc(Nc2c(C#N)cnc3cc(-c4ccc(CCl)cc4)ccc23)c(Cl)cc1Cl` displayed a melting point of 236 to 239 °C.
For `CCOc1ccccc1C(=O)Nc1c(OC)cccc1C(N)=O`, the melting point was in the range of 177 to 179 °C.
Then `CC(NC(=O)Cc1cc(F)cc(F)c1)C(=O)NC1(c2ccccc2)NC(=O)Cc2ccccc21` (stereo not drawn), with 200 to 205 °C; and `CCCc1nn(-c2ccc(C(F)(F)F)cn2)cc1CCCOc1ccc(CC(=O)O)cc1`, with 101 to 102 °C.
Then `O=C(O)[C@@H](Cc1ccccn1)Nc1cc(-c2ccc(OCc3ccccc3)cc2)ncn1`, with 142 °C; and `CCc1c(N)cccc1NC(=O)OC(C)(C)C`, with 109 to 110 °C.
`OC(CNc1ccc(Cl)cc1)Cn1ccnc1` (stereo not drawn) gave a melting point of 123 to 125 °C.
Regarding `Cn1c(=O)c(-c2ccc(Cl)cc2Cl)cc2c3cc(I)ccc3n(C)c21`, the melting point is 223 to 225 °C.
Compound `O=C(O)COc1ccc(C(=O)c2cccc3ccccc23)c(Cl)c1Cl` displayed a melting point of 173 to 175 °C.
The compound `CCCCCC(O)c1cccc(OCc2cccc(C(N)=O)c2)c1` (stereo not drawn) displayed a melting point of 97 to 98 °C.
Then `CCn1c(C)nc2cc(C(F)(F)F)c(Cl)c([N+](=O)[O-])c21`, with 114 to 116 °C; and `CC(=O)N1CCc2c(c3ccc(-n4ccc(-c5ccc(C(F)(F)F)nc5)cc4=O)nc3n2C)C1`, with 238 to 242 °C; and `CCOCCn1c(CN2CCN(CC#N)CC2)nc2cccnc21`, with 80.7 °C.
`COC(=O)c1ccc(Oc2ccc(N3CCN(c4ccncc4)CC3)cc2)nc1` gave a melting point of 143 to 144 °C.
Then `c1ccc(-c2cc(OCCN3CCOCC3)[nH]n2)cc1`, with 100 °C.
